According to patent publication US10273233B2, “Inhibitors of influenza viruses replication” (Vertex Pharmaceuticals Incorporated, priority 2015, dated 2019):

How the values were obtained:
A/Virginia/ATCC2/2009 = assay: 3-day CP assay in MDCK cells; format: cell-based; details: Influenza A virus
A/Port Chalmers/1/73 = assay: 3-day CP assay in MDCK cells; format: cell-based; details: Influenza A virus
A/Georgia/17/2006 = assay: 3-day CP assay in MDCK cells; format: cell-based; details: Influenza A virus
A/Swine/Iowa/15/30 = assay: microbe, parasite or virus in culture; format: cell-based, influenza A; details: read-out: EC50
B/Mass/3/66 = assay: 3-day CP assay in MDCK cells; format: cell-based; details: Influenza B virus
A/Texas/12/2007 = assay: 3-day CP assay in MDCK cells; format: cell-based; details: Influenza A virus
B/Memphis/20/1996--070 = assay: 3-day CP assay in MDCK cells; format: cell-based; details: Influenza B virus
A/Wisconsin/67/2005 = assay: 3-day CP assay in MDCK cells; format: cell-based; details: Influenza A virus
A/Denver/1/57 = assay: 3-day CP assay in MDCK cells; format: cell-based; details: Influenza A virus
A/Georgia/20/2006 = assay: 3-day CP assay in MDCK cells; format: cell-based, influenza A
A/VN/1203/2004 (H5N1) = assay: microbe, parasite or virus in culture; format: cell-based; details: Influenza A virus, H5N1, MDCK
A/NWS/33 = assay: 3-day CP assay in MDCK cells; format: cell-based, influenza A
A/Mal/302/54 = assay: 3-day CP assay in MDCK cells; format: cell-based; details: Influenza A virus
A/FM/1/47 = assay: 3-day CP assay in MDCK cells; format: cell-based; details: Influenza A virus
A/Texas/48/2009 = assay: 3-day CP assay in MDCK cells; format: cell-based; details: Influenza A virus
A/Weiss/43 = assay: 3-day CP assay in MDCK cells; format: cell-based; details: Influenza A virus
A/Swine/1976/31 = assay: microbe, parasite or virus in culture; format: cell-based; details: Influenza A virus, MDCK, in Sus scrofa
A/Hawaii/2/2006 = assay: 3-day CP assay in MDCK cells; format: cell-based; details: Influenza A virus
A/Fukushima/141/2006 = assay: 3-day CP assay in MDCK cells; format: cell-based; details: Influenza A virus
A/Virginia/01/2006 = assay: 3-day CP assay in MDCK cells; format: cell-based; details: Influenza A virus
A/New York/18/2009 = assay: 3-day CP assay in MDCK cells; format: cell-based; details: Influenza A virus
A/Henan/Jinshui/147/2007 = assay: 3-day CP assay in MDCK cells; format: cell-based; details: Influenza A virus
B/Lee/40 = assay: 3-day CP assay in MDCK cells; format: cell-based; details: Influenza B virus
A/Equine/Miami/63 = assay: microbe, parasite or virus in culture; format: cell-based; details: Influenza A virus, MDCK
A/Puerto Rico/8/34 = assay: 3-day CP assay in MDCK cells; format: cell-based; details: Influenza A virus
A/South Dakota/6/2007 = assay: 3-day CP assay in MDCK cells; format: cell-based; details: Influenza A virus
[1] = test system: influenza type A (H1N1, H3N2, and H3N8) viral strains; format: cell-based
A/Hong Kong/8/68 = assay: 3-day CP assay in MDCK cells; format: cell-based; details: Influenza A virus
A/Virginia/ATCC3/2009 = assay: 3-day CP assay in MDCK cells; format: cell-based; details: Influenza A virus
A/Mexico/4108/2009 = assay: 3-day CP assay in MDCK cells; format: cell-based; details: Influenza A virus
A/New Jersey/8/76 = assay: microbe, parasite or virus in culture; format: cell-based; details: Influenza A virus, MDCK
[2] = test system: A/California/07/2009 NYMC, X-179A; assay: 3-day CP assay in MDCK cells; format: cell-based; details: Influenza A virus
A/Aichi/2/68 = assay: 3-day CP assay in MDCK cells; format: cell-based; details: Influenza A virus
A/Nebraska/1/2006 = assay: 3-day CP assay in MDCK cells; format: cell-based; details: Influenza A virus
A/WS/33 = assay: 3-day CP assay in MDCK cells; format: cell-based; details: Influenza A virus
A/Chelyabinsk/1/200 = assay: 3-day CP assay in MDCK cells; format: cell-based; details: Influenza A virus
A/Cambodia0371/2007 = assay: 3-day CP assay in MDCK cells; format: cell-based; details: Influenza A virus
A/Santiago/7981/2006 = assay: 3-day CP assay in MDCK cells; format: cell-based; details: Influenza A virus
A/Victoria/3/75 = assay: 3-day CP assay in MDCK cells; format: cell-based; details: Influenza A virus
A/California/07/2009 = assay: 3-day CP assay in MDCK cells; format: cell-based; details: Influenza A virus, H1N1, MDCK, in Sus scrofa
A/St. Petersburg8/2006 = assay: 3-day CP assay in MDCK cells; format: cell-based; details: Influenza A virus
A/Uruguay/716/2007 = assay: 3-day CP assay in MDCK cells; format: cell-based; details: Influenza A virus
B/Memphis/20/1996--071 = assay: 3-day CP assay in MDCK cells; format: cell-based; details: Influenza B virus
A/Missouri/3/2006 = assay: 3-day CP assay in MDCK cells; format: cell-based; details: Influenza A virus
influenza B = assay: Influenza B mouse model, Compound (1) with oseltamivir; format: in vivo, Mice
Method: The consequence of combining Compound (1) and oseltamivir was explored in the influenza B mouse model. Mice were dosed prophylactically with vehicle (10 mL/kg 0.5% MC), 10 mg/kg oseltamivir, or oseltamivir in combination with Compound (1) at 10 mg/kg, 30 mg/kg or 60 mg/kg BID and treatment continued for 10 days.

CC(C)(C)[C@@H](CC(=O)O)Nc1nc(-c2c[nH]c3ncc(F)cc23)ncc1F [Compound (1)]
EC50 (A/Virginia/ATCC2/2009): 1.4 nM | EC50 (A/Port Chalmers/1/73): 2.3 nM | EC50 (A/Georgia/17/2006): 9.1 nM | EC50 (A/Swine/Iowa/15/30): 4.3 nM | EC50 (B/Mass/3/66): > 10000 nM | EC50 (A/Texas/12/2007): 30 nM | EC50 (B/Memphis/20/1996--070): > 10000 nM | EC50 (A/Wisconsin/67/2005): 3.7 nM | EC50 (A/Denver/1/57): 1.4 nM | EC50 (A/Georgia/20/2006): 1.7 nM | EC50 (A/VN/1203/2004 (H5N1)): 4.2 nM | EC50 (A/NWS/33): 1.7 nM | EC50 (A/Mal/302/54): 3.9 nM | EC50 (A/FM/1/47): 1.5 nM | EC50 (A/Texas/48/2009): 1.2 nM | EC50 (A/Weiss/43): 1.3 nM | EC50 (A/Swine/1976/31): 5.2 nM | EC50 (A/Hawaii/2/2006): 1.2 nM | EC50 (A/Fukushima/141/2006): 1.5 nM | EC50 (A/Virginia/01/2006): 12 nM | EC50 (A/New York/18/2009): 1.4 nM | EC50 (A/Henan/Jinshui/147/2007): 19 nM | EC50 (B/Lee/40): > 10000 nM | EC50 (A/Equine/Miami/63): 3.7 nM | EC50 (A/Puerto Rico/8/34): 14 nM | EC50 (A/South Dakota/6/2007): 0.52 nM | EC50 [1]: 4.3 nM | EC50 (A/Hong Kong/8/68): 1.9 nM | EC50 (A/Virginia/ATCC3/2009): 1.2 nM | EC50 (A/Mexico/4108/2009): 3.7 nM | EC50 (A/New Jersey/8/76): 0.96 nM | EC50 [2]: 10 nM | EC50 (A/Aichi/2/68): 4.4 nM | EC50 (A/Nebraska/1/2006): 1.9 nM | EC50 (A/WS/33): 2.4 nM | EC50 (A/Chelyabinsk/1/200): 3.1 nM | EC50 (A/Cambodia0371/2007): 1.2 nM | EC50 (A/Santiago/7981/2006): 1.8 nM | EC50 (A/Victoria/3/75): 2.1 nM | EC50 (A/California/07/2009): 4 nM | EC50 (A/St. Petersburg8/2006): 1.3 nM | EC50 (A/Uruguay/716/2007): 1 nM | EC50 (B/Memphis/20/1996--071): > 10000 nM | EC50 (A/Missouri/3/2006): 2.6 nM | survival benefit and protection from BW and lung function loss (influenza B; 10, 30 or 60 mg/kg BID Compound (1) in combination with oseltamivir 10 mg/kg BID, prophylactic, 10 days): the same survival benefit and protection from BW and lung function loss as oseltamivir treatment alone | interaction when added to oseltamivir therapy (influenza B; Compound (1) added to oseltamivir therapy): no negative interaction | activity against influenza B (influenza B; mouse, in vivo): lack of Compound (1) activity against influenza B
